{
  "source": "PubChem BioAssay AID180",
  "about": "(DTP/NCI, 2004)",
  "system": "BDF1 mice, Adenocarcinoma 755 s.c., tumor weight T/C",
  "experiment": "NCI In Vivo Anticancer Drug Screen. Data for tumor model Adenocarcinoma 755 (subcutaneous) in B6D2F1 (BDF1) mice",
  "conditions": "endpoint: mean tumor weight, higher = larger tumour",
  "procedure,_shortened": "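Tumor-bearing mice receive test compound while controls get vehicle alone. Antitumor effect is scored from survival or tumor dimensions as a T/C quotient.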",
  "note": "Where “and” joins values, the source holds several entries; their conditions need not be identical. Equal entries are not always repeated.",
  "data": [
    {"smiles": "O=S(=O)(O)C(Nc1ccccc1)c1ccccc1", "note": "(stereo unspecified)", "values": [
      {"measurement": "T/C", "setting": "dose: 20.0 mg/kg/injection, schedule: Q01DX011 (ip), vehicle: carboxymethylcellulose (CMC)", "value": "119 % of control"},
      {"measurement": "T/C", "setting": "dose: 40.0 mg/kg/injection, schedule: Q01DX011 (ip), vehicle: carboxymethylcellulose (CMC)", "value": "91 % of control"},
      {"measurement": "T/C", "setting": "dose: 80.0 mg/kg/injection, schedule: Q01DX011 (ip), vehicle: carboxymethylcellulose (CMC)", "value": "70 % of control"}
    ]},
    {"smiles": "CC(=O)OC1C(CO)OC(n2cnc3c(=S)nc[nH]c32)C1OC(C)=O", "note": "(stereo unspecified)", "values": [
      {"measurement": "T/C", "setting": "dose: 3.75 mg/kg/injection, schedule: Q01DX011 (ip), vehicle: carboxymethylcellulose (CMC)", "value": "38 % of control"},
      {"measurement": "T/C", "setting": "dose: 7.5 mg/kg/injection, schedule: Q01DX011 (ip), vehicle: carboxymethylcellulose (CMC)", "value": "10 % of control"},
      {"measurement": "T/C", "setting": "dose: 15.0 mg/kg/injection, schedule: Q01DX011 (ip), vehicle: carboxymethylcellulose (CMC)", "value": "5 % of control"},
      {"measurement": "T/C", "setting": "dose: 30.0 mg/kg/injection, schedule: Q01DX011 (ip), vehicle: carboxymethylcellulose (CMC)", "value": "5 % of control and 7 % of control"},
      {"measurement": "T/C", "setting": "dose: 60.0 mg/kg/injection, schedule: Q01DX011 (ip), vehicle: carboxymethylcellulose (CMC)", "value": "7 % of control"},
      {"measurement": "T/C", "setting": "dose: 120.0 mg/kg/injection, schedule: Q01DX011 (ip), vehicle: carboxymethylcellulose (CMC)", "value": "6 % of control"}
    ]},
    {"smiles": "Cc1ccccc1-c1nc2c(N)nc(N)nc2nc1N", "values": [
      {"measurement": "T/C", "setting": "dose: 50.5 mg/kg/injection, schedule: Q01DX011 (ip), vehicle: carboxymethylcellulose (CMC)", "value": "83 % of control"},
      {"measurement": "T/C", "setting": "dose: 57.0 mg/kg/injection, schedule: Q01DX011 (ip), vehicle: methylcellulose (MC)", "value": "54 % of control and 75 % of control"},
      {"measurement": "T/C", "setting": "dose: 101.0 mg/kg/injection, schedule: Q01DX011 (ip), vehicle: carboxymethylcellulose (CMC)", "value": "75 % of control"},
      {"measurement": "T/C", "setting": "dose: 113.0 mg/kg/injection, schedule: Q01DX011 (ip), vehicle: methylcellulose (MC)", "value": "48 % of control and 52 % of control"},
      {"measurement": "T/C", "setting": "dose: 202.0 mg/kg/injection, schedule: Q01DX011 (ip), vehicle: carboxymethylcellulose (CMC)", "value": "68 % of control"},
      {"measurement": "T/C", "setting": "dose: 225.0 mg/kg/injection, schedule: Q01DX011 (ip), vehicle: methylcellulose (MC)", "value": "82 % of control"}
    ]},
    {"smiles": "NC(CCSCc1ccc(N(CCCl)CCCl)cc1)C(=O)O", "note": "(stereo unspecified)", "values": [
      {"measurement": "T/C", "setting": "dose: 4.5 mg/kg/injection, schedule: Q01DX011 (ip), vehicle: saline", "value": "99 % of control and 74 % of control"},
      {"measurement": "T/C", "setting": "dose: 9.0 mg/kg/injection, schedule: Q01DX011 (ip), vehicle: saline", "value": "43 % of control and 54 % of control"},
      {"measurement": "T/C", "setting": "dose: 36.0 mg/kg/injection, schedule: Q01DX011 (ip), vehicle: saline", "value": "29 % of control"},
      {"measurement": "T/C", "setting": "dose: 54.0 mg/kg/injection, schedule: Q01DX011 (ip), vehicle: saline", "value": "21 % of control"}
    ]},
    {"smiles": "O=P(N1CC=CCC1)(N1CC1)N1CC1", "values": [
      {"measurement": "T/C", "setting": "dose: 0.03 mg/kg/injection, schedule: Q01DX011 (ip), vehicle: saline", "value": "75 % of control"},
      {"measurement": "T/C", "setting": "dose: 0.05 mg/kg/injection, schedule: Q01DX011 (ip), vehicle: saline", "value": "81 % of control"},
      {"measurement": "T/C", "setting": "dose: 0.1 mg/kg/injection, schedule: Q01DX011 (ip), vehicle: saline", "value": "114 % of control"},
      {"measurement": "T/C", "setting": "dose: 0.2 mg/kg/injection, schedule: Q01DX011 (ip), vehicle: saline", "value": "100 % of control"},
      {"measurement": "T/C", "setting": "dose: 25.0 micrograms/kg/injection, schedule: Q01DX011 (ip), vehicle: saline", "value": "120 % of control"},
      {"measurement": "T/C", "setting": "dose: 50.0 micrograms/kg/injection, schedule: Q01DX011 (ip), vehicle: saline", "value": "94 % of control"},
      {"measurement": "T/C", "setting": "dose: 100.0 micrograms/kg/injection, schedule: Q01DX011 (ip), vehicle: saline", "value": "114 % of control"},
      {"measurement": "T/C", "setting": "dose: 200.0 micrograms/kg/injection, schedule: Q01DX011 (ip), vehicle: saline", "value": "106 % of control"}
    ]},
    {"smiles": "O=P(N1CCCCC1)(N1CC1)N1CC1", "values": [
      {"measurement": "T/C", "setting": "dose: 1.8 mg/kg/injection, schedule: Q01DX011 (ip), vehicle: carboxymethylcellulose (CMC)", "value": "68 % of control"},
      {"measurement": "T/C", "setting": "dose: 1.8 mg/kg/injection, schedule: Q01DX011 (ip), vehicle: saline", "value": "44 % of control"},
      {"measurement": "T/C", "setting": "dose: 3.5 mg/kg/injection, schedule: Q01DX011 (ip), vehicle: carboxymethylcellulose (CMC)", "value": "92 % of control"},
      {"measurement": "T/C", "setting": "dose: 3.5 mg/kg/injection, schedule: Q01DX011 (ip), vehicle: saline", "value": "38 % of control"},
      {"measurement": "T/C", "setting": "dose: 7.0 mg/kg/injection, schedule: Q01DX011 (ip), vehicle: saline", "value": "15 % of control"},
      {"measurement": "T/C", "setting": "dose: 14.0 mg/kg/injection, schedule: Q01DX011 (ip), vehicle: carboxymethylcellulose (CMC)", "value": "45 % of control"}
    ]},
    {"smiles": "OC1c2cc(Cl)ccc2-c2c(Cl)cc(Cl)cc21", "note": "(stereo unspecified)", "values": [
      {"measurement": "T/C", "setting": "dose: 50.0 mg/kg/injection, schedule: Q01DX011 (ip), vehicle: other", "value": "37 % of control"},
      {"measurement": "T/C", "setting": "dose: 100.0 mg/kg/injection, schedule: Q01DX011 (ip), vehicle: other", "value": "41 % of control"},
      {"measurement": "T/C", "setting": "dose: 200.0 mg/kg/injection, schedule: Q01DX011 (ip), vehicle: other", "value": "19 % of control"},
      {"measurement": "T/C", "setting": "dose: 400.0 mg/kg/injection, schedule: Q01DX011 (ip), vehicle: other", "value": "10 % of control"}
    ]},
    {"smiles": "CCCCn1cnc2c(SCc3cccc(F)c3)nc(N)nc21", "values": [
      {"measurement": "T/C", "setting": "dose: 3.1 mg/kg/injection, schedule: Q01DX011 (ip), vehicle: methylcellulose (MC)", "value": "50 % of control"},
      {"measurement": "T/C", "setting": "dose: 6.25 mg/kg/injection, schedule: Q01DX011 (ip), vehicle: methylcellulose (MC)", "value": "61 % of control"},
      {"measurement": "T/C", "setting": "dose: 12.5 mg/kg/injection, schedule: Q01DX011 (ip), vehicle: methylcellulose (MC)", "value": "23 % of control"},
      {"measurement": "T/C", "setting": "dose: 25.0 mg/kg/injection, schedule: Q01DX011 (ip), vehicle: methylcellulose (MC)", "value": "1 % of control and 8 % of control"}
    ]},
    {"smiles": "CC/C(=C(\\CC)c1ccc(OC)cc1)c1ccc(O)cc1", "values": [
      {"measurement": "T/C", "setting": "dose: 15.0 mg/kg/injection, schedule: Q01DX011 (sc), vehicle: steriod suspending solution", "value": "68 % of control"},
      {"measurement": "T/C", "setting": "dose: 30.0 mg/kg/injection, schedule: Q01DX011 (sc), vehicle: steriod suspending solution", "value": "69 % of control"},
      {"measurement": "T/C", "setting": "dose: 60.0 mg/kg/injection, schedule: Q01DX011 (sc), vehicle: steriod suspending solution", "value": "40 % of control"},
      {"measurement": "T/C", "setting": "dose: 120.0 mg/kg/injection, schedule: Q01DX011 (sc), vehicle: other", "value": "37 % of control and 42 % of control"},
      {"measurement": "T/C", "setting": "dose: 120.0 mg/kg/injection, schedule: Q01DX011 (sc), vehicle: steriod suspending solution", "value": "26 % of control"}
    ]},
    {"smiles": "CS(=O)(=O)OCC1OC(OCc2ccccc2)CC1O", "note": "(stereo unspecified)", "values": [
      {"measurement": "T/C", "setting": "dose: 25.0 mg/kg/injection, schedule: Q01DX011 (ip), vehicle: saline", "value": "102 % of control"}
    ]},
    {"smiles": "CS(=O)(=O)OCCCl", "values": [
      {"measurement": "T/C", "setting": "dose: 20.88 mg/kg/injection, schedule: Q01DX011 (ip), vehicle: carboxymethylcellulose (CMC)", "value": "80 % of control"},
      {"measurement": "T/C", "setting": "dose: 28.73 mg/kg/injection, schedule: Q01DX011 (ip), vehicle: carboxymethylcellulose (CMC)", "value": "80 % of control"},
      {"measurement": "T/C", "setting": "dose: 40.25 mg/kg/injection, schedule: Q01DX011 (ip), vehicle: carboxymethylcellulose (CMC)", "value": "52 % of control"},
      {"measurement": "T/C", "setting": "dose: 41.75 mg/kg/injection, schedule: Q01DX011 (ip), vehicle: carboxymethylcellulose (CMC)", "value": "117 % of control"},
      {"measurement": "T/C", "setting": "dose: 83.5 mg/kg/injection, schedule: Q01DX011 (ip), vehicle: carboxymethylcellulose (CMC)", "value": "97 % of control"},
      {"measurement": "T/C", "setting": "dose: 114.9 mg/kg/injection, schedule: Q01DX011 (ip), vehicle: carboxymethylcellulose (CMC)", "value": "88 % of control and 103 % of control"},
      {"measurement": "T/C", "setting": "dose: 130.0 mg/kg/injection, schedule: Q01DX011 (ip), vehicle: carboxymethylcellulose (CMC)", "value": "54 % of control"},
      {"measurement": "T/C", "setting": "dose: 140.0 mg/kg/injection, schedule: Q01DX011 (ip), vehicle: carboxymethylcellulose (CMC)", "value": "21 % of control"},
      {"measurement": "T/C", "setting": "dose: 150.0 mg/kg/injection, schedule: Q01DX011 (ip), vehicle: carboxymethylcellulose (CMC)", "value": "11 % of control"}
    ]}
  ]
}
